Measured values from the supplement of paper PMC11208160.

assay: recombinant UMI read abundance after kanamycin selection (control-corrected) (log10(CPM+1)); higher = more efficient recombination; extreme values may be limits of the assay; sequences stand for … in AGTGCAGAGAAAATCGGCCAGTTTTCTCTGCCTGCAGTCCGCATGCCGTGGGACCCCTTGGGTTCTAACCTGTTGCCTAGATTTATGCAGCGGACTGCCTTTCTCCCAAAGTGATAAACCGG…AGGTTGGTTTCACT; site = the 11-nt donor
How it was run: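 Values are reported as log10(CPM+1), obtained by converting sequencing counts to CPM, averaging replicates and scaling by control-derived factors. The counts came from recombinant UMIs amplified by PCR across the donor–target junction. These UMIs came from a pooled Escherichia coli screen of donor and donor-binding-loop pairs for the IS621 bridge recombinase, plated with IPTG (0.07 mM) plus kanamycin or left unselected, in two replicates each.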
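Also: IS621 bridge recombinase in Escherichia coli cells against a fixed T5 target plasmid.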

“CGATCATCATGGACCGGTTTTCCCGGTAATCCGTATTTGCT (site CAATCATCTGG)” and “TTCACGCCATGGACCGGTTTTCCCGGTAATCCGTATTTGAC (site TTCACGCCTGT)” are the same in “recombinant UMI read abundance (log10)” value: 0 for the first, 0 for the second.

First: CATTATCCATGGACCGGTTTTCCCGGTAATCCGTATTTGCT (site CATTATCCTAG)
Second: AAAGCGCCATGGACCGGTTTTCCCGGTAATCCGTATTTGTG (site AAAGCGCCTCA)
The “recombinant UMI read abundance (log10)” value of the first is higher: 1.59 for the first, 0.207 for the second.

“CCCTCGGCATGGACCGGTTTTCCCGGTAATCCGTATTTGCT (site CCCTCGGCTAG)” and “CGGAATCCATGGACCGGTTTTCCCGGTAATCCGTATTTGTT (site CCGAATCCTAA)” are within 0.2 log units of each other in “recombinant UMI read abundance (log10)” value: 0.0794 for the first, 0.00308 for the second.

Compared with “CGCCGCACATGGACCGGTTTTCCCGGTAATCCGTATTTGCT (site CGCCGGACTAG)”, “AGCAAGGCATGGACCGGTTTTCCCGGTAATCCGTATTTGCA (site AGCAAGGCTTG)” is higher in “recombinant UMI read abundance (log10)” value: 0.00439 for the first, 2.5 for the second.

First: CGGGAGTCATGGACCGGTTTTCCCGGTAATCCGTATTTGCC (site CGCGAGTCTGG)
Second: TAGAATACATGGACCGGTTTTCCCGGTAATCCGTATTTGCA (site GAGAATACTTG)
The “recombinant UMI read abundance (log10)” value of the first is higher: 1.69 for the first, 0.196 for the second.

Compared with “AACCTAGCATGGACCGGTTTTCCCGGTAATCCGTATTTGTT (site ACCCTAGCTAA)”, “CCCTATCCATGGACCGGTTTTCCCGGTAATCCGTATTTGAC (site CCCTATCCTGT)” is lower in “recombinant UMI read abundance (log10)” value: 0.542 for the first, 0 for the second.

“ATTGTGCCATGGACCGGTTTTCCCGGTAATCCGTATTTGTG (site ATTGTGCCTCA)” and “CCCCCCACATGGACCGGTTTTCCCGGTAATCCGTATTTGTA (site CCCCTCACTTA)” are within 0.2 log units of each other in “recombinant UMI read abundance (log10)” value: 0.054 for the first, 0.00445 for the second.

“GTTGTTTCATGGACCGGTTTTCCCGGTAATCCGTATTTGGT (site GTTGTTACTAC)” and “CGGTCGACATGGACCGGTTTTCCCGGTAATCCGTATTTGGG (site CCGTCGACTCC)” are within 0.2 log units of each other in “recombinant UMI read abundance (log10)” value: 0.00963 for the first, 0.0265 for the second.

“GGCAATCCATGGACCGGTTTTCCCGGTAATCCGTATTTGGA (site GGCAATCCTTC)” and “TAATGAGCATGGACCGGTTTTCCCGGTAATCCGTATTTGGG (site GAATGAGCTCC)” are within 0.2 log units of each other in “recombinant UMI read abundance (log10)” value: 0 for the first, 0.00249 for the second.

Going from “AAGTATGCATGGACCGGTTTTCCCGGTAATCCGTATTTGGA (site AAGTATGCTTC)” to “ACCTTTCCATGGACCGGTTTTCCCGGTAATCCGTATTTGGT (site ACCTTTCCTAC)”, the “recombinant UMI read abundance (log10)” value falls from 1.96 to 0.

“AGGTTCTCATGGACCGGTTTTCCCGGTAATCCGTATTTGTG (site AGGTTCGCTCA)” and “CGTTTGCCATGGACCGGTTTTCCCGGTAATCCGTATTTGCT (site CGTTTGTCTAG)” are within 0.2 log units of each other in “recombinant UMI read abundance (log10)” value: 0.0171 for the first, 0 for the second.

First: AGGACCACATGGACCGGTTTTCCCGGTAATCCGTATTTGAC (site AGGACCACTGT)
Second: TCCACCACATGGACCGGTTTTCCCGGTAATCCGTATTTGCG (site TCCACCCCTCG)
The “recombinant UMI read abundance (log10)” value of the first is higher: 2.79 for the first, 0.0154 for the second.

Compared with “ACAGTATCATGGACCGGTTTTCCCGGTAATCCGTATTTGCG (site ACAGTATCTAG)”, “GGGTTCCCATGGACCGGTTTTCCCGGTAATCCGTATTTGTG (site GGGTTCCCTCA)” is lower in “recombinant UMI read abundance (log10)” value: 2.18 for the first, 0.00899 for the second.

Going from “CGATCATCATGGACCGGTTTTCCCGGTAATCCGTATTTGCT (site TTATCATCTAG)” to “CAGGCATCATGGACCGGTTTTCCCGGTAATCCGTATTTGTC (site CAGGCATCTGA)”, the “recombinant UMI read abundance (log10)” value rises from 1.88 to 2.76.

“CGGAATCCATGGACCGGTTTTCCCGGTAATCCGTATTTGTT (site CGCCATCCTAA)” and “ACTTAGACATGGACCGGTTTTCCCGGTAATCCGTATTTGGG (site ACGTAGACTCC)” are within 0.2 log units of each other in “recombinant UMI read abundance (log10)” value: 0 for the first, 0.00655 for the second.

“AGGACCACATGGACCGGTTTTCCCGGTAATCCGTATTTGAC (site AGGACTACTGT)” and “CCTTAGCCATGGACCGGTTTTCCCGGTAATCCGTATTTGAA (site CCTTAGCCTTT)” are the same in “recombinant UMI read abundance (log10)” value: 0 for the first, 0 for the second.

First: CTTAATACATGGACCGGTTTTCCCGGTAATCCGTATTTGGC (site CTTAATACTGC)
Second: CGGAATGCATGGACCGGTTTTCCCGGTAATCCGTATTTGCA (site CGGAATGCTTG)
The “recombinant UMI read abundance (log10)” value of the first is lower: 0 for the first, 2.28 for the second.

First: CAGGAAACATGGACCGGTTTTCCCGGTAATCCGTATTTGCA (site CAGGAAACTTG)
Second: CCCCACACATGGACCGGTTTTCCCGGTAATCCGTATTTGTA (site CCCCACACTAA)
The “recombinant UMI read abundance (log10)” value of the first is higher: 1.79 for the first, 0.0177 for the second.

In the case of “CGTTTGGCATGGACCGGTTTTCCCGGTAATCCGTATTTGCT (site CGTTTGGCTAT)”, the “recombinant UMI read abundance (log10)” value is reported as 0.00603.
